The nature of assay [1]: Inhibition of HIV1 gp41. Details: species or system Human immunodeficiency virus 1.
The target of assay [2] is Neuropilin-1 (Homo sapiens, UniProt O14786). Put plainly: Binding affinity to NRP1 (unknown origin) assessed as reduction in […]VEGFA (165) protein interaction.
Assay [3] in a line: Antiproliferative activity against breast cancer cells (unknown origin). Format: functional, cell-based. The conditions noted are these: Cancer cell lines.
In assay [4] the test system is MCF7. Put plainly: Cytotoxicity against human MCF7 cells. Format: functional, cell-based.
Assay [5] addresses Annexin A2/S100-A10 (Homo sapiens, UniProt P07355+P60903). Briefly: Inhibition of Annexin A2/Protein S100-A10 (unknown origin) protein interaction by competitive fluorescent binding assay.
A short description of assay [6]: Binding affinity to IFNalpha (unknown origin) assessed as reduction in IFNalpha/IFNAR2 interaction. The arrangement: species or system Homo sapiens.
The target in assay [7] is Tumour suppressor p53/oncoprotein Mdm2 (Homo sapiens, UniProt P04637+Q00987). Briefly: Inhibition of MDM2/p53 (unknown origin) interaction by fluorescence polarization assay. Format: protein assay. A general note: In fluorescence polarisation assays a small probe gives low polarisation when free and higher when bound to something large.
Assay [8] concerns the target T1, Urokinase plasminogen activator surface receptor (Homo sapiens, UniProt Q03405). Put plainly: Binding affinity to uPAR (unknown origin).
Assay [9] deals with T1, Urokinase plasminogen activator surface receptor. Put plainly: Binding affinity to uPAR (unknown origin) assessed as reduction in uPA-uPAR protein interaction.
Assay [10] concerns the target Keap1/Nrf2 (Homo sapiens, UniProt Q14145+Q16236). Put plainly: Inhibition of Nrf2/Keap1 (unknown origin) protein interaction by fluorescence anisotropy method. Format: protein assay.
Assay [11] has as its target T2, Alpha-crystallin B chain (Homo sapiens, UniProt P02511).
T2 sequence (P02511 whole entry): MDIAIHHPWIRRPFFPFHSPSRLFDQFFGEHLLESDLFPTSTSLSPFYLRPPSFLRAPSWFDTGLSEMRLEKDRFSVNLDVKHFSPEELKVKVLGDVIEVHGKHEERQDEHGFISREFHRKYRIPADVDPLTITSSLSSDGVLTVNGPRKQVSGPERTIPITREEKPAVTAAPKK
Briefly: Binding affinity to CRYAB (unknown origin) assessed as reduction in CRYAB-VEGFA protein interaction.

For assay [12], the target named is Tumour suppressor protein p53/Mdm4 (Homo sapiens, UniProt O15151+P04637). Briefly: Inhibition of MDMX/p53 (unknown origin) interaction. Type of assay: protein assay.
Sequence of Tumour suppressor protein p53/Mdm4 (P04637 whole entry): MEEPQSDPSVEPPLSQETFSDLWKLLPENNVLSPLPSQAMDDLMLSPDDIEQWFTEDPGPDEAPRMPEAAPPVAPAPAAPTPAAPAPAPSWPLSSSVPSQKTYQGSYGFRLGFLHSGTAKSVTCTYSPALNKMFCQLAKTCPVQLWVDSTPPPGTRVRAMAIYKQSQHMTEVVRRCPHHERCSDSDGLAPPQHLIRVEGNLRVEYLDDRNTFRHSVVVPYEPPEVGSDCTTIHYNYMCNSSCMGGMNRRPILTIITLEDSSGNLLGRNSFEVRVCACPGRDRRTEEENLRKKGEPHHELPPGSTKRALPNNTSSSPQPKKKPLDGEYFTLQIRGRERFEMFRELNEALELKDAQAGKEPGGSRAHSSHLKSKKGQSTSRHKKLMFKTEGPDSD
Sequence of Tumour suppressor protein p53/Mdm4 (O15151 whole entry): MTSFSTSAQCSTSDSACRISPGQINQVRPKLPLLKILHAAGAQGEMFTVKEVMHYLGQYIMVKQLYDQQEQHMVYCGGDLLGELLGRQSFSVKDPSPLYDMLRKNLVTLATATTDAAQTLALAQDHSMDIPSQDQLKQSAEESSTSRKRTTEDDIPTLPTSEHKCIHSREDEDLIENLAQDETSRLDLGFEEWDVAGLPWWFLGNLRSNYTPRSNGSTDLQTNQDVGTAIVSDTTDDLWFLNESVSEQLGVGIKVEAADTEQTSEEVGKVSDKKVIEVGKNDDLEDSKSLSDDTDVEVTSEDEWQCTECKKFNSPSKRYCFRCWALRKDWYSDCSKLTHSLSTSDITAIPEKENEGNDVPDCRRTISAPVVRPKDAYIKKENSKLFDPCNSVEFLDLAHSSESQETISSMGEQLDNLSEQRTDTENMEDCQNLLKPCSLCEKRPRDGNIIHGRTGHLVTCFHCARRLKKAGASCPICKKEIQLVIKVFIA

T1 sequence (Q03405 whole entry): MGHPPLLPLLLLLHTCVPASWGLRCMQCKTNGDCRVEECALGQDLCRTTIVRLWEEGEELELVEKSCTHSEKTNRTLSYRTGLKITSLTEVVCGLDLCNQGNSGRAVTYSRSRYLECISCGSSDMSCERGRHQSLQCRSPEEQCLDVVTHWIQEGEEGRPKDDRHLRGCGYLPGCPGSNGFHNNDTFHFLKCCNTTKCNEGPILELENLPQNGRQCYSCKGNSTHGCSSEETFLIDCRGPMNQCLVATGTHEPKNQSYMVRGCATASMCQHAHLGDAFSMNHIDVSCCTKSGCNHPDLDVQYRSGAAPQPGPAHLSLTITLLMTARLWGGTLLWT
Sequence of Keap1/Nrf2 (Q16236 whole entry): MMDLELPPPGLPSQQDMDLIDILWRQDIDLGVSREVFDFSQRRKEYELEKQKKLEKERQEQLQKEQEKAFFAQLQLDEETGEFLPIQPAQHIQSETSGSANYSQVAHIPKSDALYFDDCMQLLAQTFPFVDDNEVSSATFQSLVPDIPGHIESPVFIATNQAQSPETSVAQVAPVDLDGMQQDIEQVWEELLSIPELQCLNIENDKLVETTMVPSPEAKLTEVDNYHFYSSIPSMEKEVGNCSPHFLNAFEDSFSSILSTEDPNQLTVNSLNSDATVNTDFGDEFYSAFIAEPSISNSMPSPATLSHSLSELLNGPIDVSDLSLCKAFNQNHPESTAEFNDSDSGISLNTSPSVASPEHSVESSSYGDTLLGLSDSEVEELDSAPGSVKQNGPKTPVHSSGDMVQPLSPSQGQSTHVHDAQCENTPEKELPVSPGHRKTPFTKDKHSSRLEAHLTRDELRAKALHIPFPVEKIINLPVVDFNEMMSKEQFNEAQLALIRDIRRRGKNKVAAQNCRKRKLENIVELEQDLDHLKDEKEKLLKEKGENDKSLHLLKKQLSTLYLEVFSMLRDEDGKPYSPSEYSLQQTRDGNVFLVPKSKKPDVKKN
Sequence of Keap1/Nrf2 (Q14145 whole entry): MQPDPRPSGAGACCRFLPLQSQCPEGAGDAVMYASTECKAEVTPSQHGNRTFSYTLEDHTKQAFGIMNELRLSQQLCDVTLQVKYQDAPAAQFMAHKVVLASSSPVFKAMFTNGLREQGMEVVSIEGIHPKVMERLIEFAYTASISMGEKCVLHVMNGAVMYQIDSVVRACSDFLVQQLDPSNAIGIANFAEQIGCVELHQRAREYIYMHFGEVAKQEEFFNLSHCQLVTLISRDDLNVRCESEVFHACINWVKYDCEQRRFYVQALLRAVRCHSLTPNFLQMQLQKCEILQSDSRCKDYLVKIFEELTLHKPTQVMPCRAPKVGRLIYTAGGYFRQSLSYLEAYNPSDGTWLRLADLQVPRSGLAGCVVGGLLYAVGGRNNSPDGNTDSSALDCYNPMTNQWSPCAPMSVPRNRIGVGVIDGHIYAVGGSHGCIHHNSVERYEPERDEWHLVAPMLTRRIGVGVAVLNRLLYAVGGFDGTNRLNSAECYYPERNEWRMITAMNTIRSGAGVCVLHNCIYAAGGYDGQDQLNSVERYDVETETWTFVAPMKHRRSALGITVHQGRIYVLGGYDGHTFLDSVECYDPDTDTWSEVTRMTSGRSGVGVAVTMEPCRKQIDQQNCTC
Sequence of Tumour suppressor p53/oncoprotein Mdm2 (P04637 whole entry): as the sequence (P04637 whole entry) above
Sequence of Tumour suppressor p53/oncoprotein Mdm2 (Q00987 whole entry): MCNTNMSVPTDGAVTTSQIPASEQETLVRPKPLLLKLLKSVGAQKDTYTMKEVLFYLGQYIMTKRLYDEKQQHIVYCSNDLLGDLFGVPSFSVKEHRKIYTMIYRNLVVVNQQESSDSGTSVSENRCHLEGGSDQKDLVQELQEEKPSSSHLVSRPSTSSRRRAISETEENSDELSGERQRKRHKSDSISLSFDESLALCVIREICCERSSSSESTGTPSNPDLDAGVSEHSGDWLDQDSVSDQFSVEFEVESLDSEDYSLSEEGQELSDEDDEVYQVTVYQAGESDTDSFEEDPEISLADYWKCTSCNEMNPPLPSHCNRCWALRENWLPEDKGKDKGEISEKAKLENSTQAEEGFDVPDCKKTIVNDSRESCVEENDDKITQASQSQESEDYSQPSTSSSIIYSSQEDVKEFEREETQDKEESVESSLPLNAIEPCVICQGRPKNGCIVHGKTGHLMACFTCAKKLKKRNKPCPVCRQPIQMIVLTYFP
Sequence of Neuropilin-1 (O14786 whole entry): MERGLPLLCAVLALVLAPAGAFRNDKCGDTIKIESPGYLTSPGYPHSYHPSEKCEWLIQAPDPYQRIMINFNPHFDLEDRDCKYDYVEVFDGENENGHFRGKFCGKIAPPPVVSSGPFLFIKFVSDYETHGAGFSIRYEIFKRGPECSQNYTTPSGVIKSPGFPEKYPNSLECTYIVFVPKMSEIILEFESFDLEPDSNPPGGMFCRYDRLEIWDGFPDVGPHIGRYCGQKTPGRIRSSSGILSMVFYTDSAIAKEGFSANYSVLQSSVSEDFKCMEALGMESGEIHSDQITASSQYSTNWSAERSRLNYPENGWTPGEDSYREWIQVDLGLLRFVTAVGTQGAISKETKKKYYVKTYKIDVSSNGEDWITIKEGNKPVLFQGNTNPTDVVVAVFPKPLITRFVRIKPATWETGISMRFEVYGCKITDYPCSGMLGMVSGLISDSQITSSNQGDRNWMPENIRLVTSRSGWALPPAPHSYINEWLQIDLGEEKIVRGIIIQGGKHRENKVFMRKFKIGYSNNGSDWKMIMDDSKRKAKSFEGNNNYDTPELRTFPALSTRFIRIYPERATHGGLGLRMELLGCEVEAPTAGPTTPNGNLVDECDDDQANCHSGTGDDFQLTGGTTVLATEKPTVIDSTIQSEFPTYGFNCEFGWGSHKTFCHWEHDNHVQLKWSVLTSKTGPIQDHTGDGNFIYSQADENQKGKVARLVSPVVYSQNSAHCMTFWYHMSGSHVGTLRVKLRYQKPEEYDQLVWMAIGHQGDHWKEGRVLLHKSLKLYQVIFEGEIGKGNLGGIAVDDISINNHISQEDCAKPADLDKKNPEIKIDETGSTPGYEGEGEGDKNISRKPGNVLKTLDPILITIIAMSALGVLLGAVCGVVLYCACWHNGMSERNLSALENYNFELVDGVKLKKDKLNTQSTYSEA
Sequence of Annexin A2/S100-A10 (P07355 whole entry): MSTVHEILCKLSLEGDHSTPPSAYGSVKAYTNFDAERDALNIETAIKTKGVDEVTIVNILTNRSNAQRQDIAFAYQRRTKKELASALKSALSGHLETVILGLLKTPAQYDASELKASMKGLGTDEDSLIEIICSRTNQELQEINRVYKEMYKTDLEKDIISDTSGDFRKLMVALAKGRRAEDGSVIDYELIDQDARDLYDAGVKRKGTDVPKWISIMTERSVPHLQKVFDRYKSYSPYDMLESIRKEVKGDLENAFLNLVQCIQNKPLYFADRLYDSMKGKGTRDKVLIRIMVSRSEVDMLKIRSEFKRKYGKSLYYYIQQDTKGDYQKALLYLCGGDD
Sequence of Annexin A2/S100-A10 (P60903 whole entry): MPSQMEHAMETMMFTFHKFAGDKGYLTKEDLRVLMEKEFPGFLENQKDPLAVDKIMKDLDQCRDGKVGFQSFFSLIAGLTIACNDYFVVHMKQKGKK

For the compound `CC(C)C[C@H](NC(=O)c1ccc(NC(=O)[C@@H](N)Cc2c[nH]c3ccccc23)c(OCCc2c[nH]c3ccccc23)c1)C(=O)O`, the Ki (usually a measure of affinity in units of concentration, obtained from inhibition or displacement) in assay [1] was determined as 1.5 µM.

In the case of `O=C(NC(=S)Nc1cccc(-c2nc3ccccc3[nH]2)c1)c1ccc2c(c1)OCCO2`, the IC50 (commonly the concentration needed to halve the response being measured) in [2] turned out to be 9.3 µM; in assay [3] it was 0.2 µM.

As to `COC(=O)[C@@H](CCCCNC(=O)OC(C)(C)C)NC(=O)CI`, the EC50 (usually the concentration at which the effect is half-maximal) in assay [4] turned out to be 0.64 µM.

Take `Cc1ccccc1OCc1nnc(SCC(N)=O)[nH]1`: the IC50 in assay [5] was 24 µM.

In the case of `CNCc1ccccc1Cc1cccc2ccccc12`, in assay [6], the IC50 is 4 µM.

With `O=C(O)c1ccccc1/N=N/C(=N\Nc1cc(S(=O)(=O)O)ccc1O)c1ccccc1`, the Ki in assay [7] was found to be 0.18 µM.

Turning to `C[C@H]1C[C@H](C)CN(c2cc(Nc3ccccc3C(=O)O)c3c4c(onc24)-c2ccccc2C3=O)C1`, binding in assay [8] was characterised by a dissociation constant (Kd) of 0.31 µM. The IC50 in assay [9] was found to be 10 µM.

On to `CCC(CC)c1ccc(S(=O)(=O)Nc2cc(Sc3nc[nH]n3)c(O)c3ccccc23)cc1`, for which, in assay [10], the Kd (in general, the concentration at which binding is half-saturated) turned out to be 2.9 µM.

Regarding `CC(CC(=O)O)C(N)C(=O)O` (configuration not stated), the IC50 in [11] was 20 µM.

In assay [12], `C[C@H](CCC(=O)O)[C@H]1CC[C@H]2[C@@H]3CC[C@@H]4C[C@H](O)CC[C@]4(C)[C@H]3CC[C@]12C` [LITHOCHOLIC ACID] gave a Kd of 15 µM.

The record behind these values is ChEMBL document CHEMBL3621082, “Rational design of proteinprotein interaction inhibitors” (Medchemcomm, 2015).
